Experimental data published in ChEMBL document CHEMBL1201862, “PubChem BioAssay data set” (2004).
Calls of active or inactive are those of the source.

What was measured:
[1] = tested on: Streptococcus sp. 'group A'; experiment: growth inhibition of control SK(-) GAS strain, dose response, counter-screen for streptokinase expression inhibitor project, luminescence, kanamycin, BacTiterGlo, confirmation (AID 1900); assay type: functional, organism-based
Streptokinase A = biological target: T1, Streptokinase A (Streptococcus pyogenes serotype M1, UniProt P10520); experiment: S. pyogenes streptokinase expression inhibitors, potency, dose response, plasminogen activation absorbance, OD405 (AID 1914); assay type: functional, Streptococcus pyogenes M1 GAS;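 note: secreted streptokinase activity via plasminogen activation per viability signal from cell pellet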
T1 sequence (P10520 whole entry): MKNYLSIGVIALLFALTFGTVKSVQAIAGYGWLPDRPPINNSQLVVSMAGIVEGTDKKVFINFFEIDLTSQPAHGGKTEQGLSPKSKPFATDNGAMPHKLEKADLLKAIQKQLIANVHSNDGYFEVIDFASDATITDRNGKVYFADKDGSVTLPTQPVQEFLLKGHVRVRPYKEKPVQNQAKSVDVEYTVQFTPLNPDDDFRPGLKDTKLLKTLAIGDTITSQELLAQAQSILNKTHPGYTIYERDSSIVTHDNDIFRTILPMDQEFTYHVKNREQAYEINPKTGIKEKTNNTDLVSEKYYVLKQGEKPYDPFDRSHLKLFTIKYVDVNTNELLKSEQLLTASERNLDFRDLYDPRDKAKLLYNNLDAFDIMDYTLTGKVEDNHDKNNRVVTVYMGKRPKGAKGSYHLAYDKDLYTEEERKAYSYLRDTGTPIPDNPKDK

[2] = biological target: G-protein coupled receptor 55 (Homo sapiens, UniProt Q9Y2T6); experiment: GPR55 antagonists blocking LPI-driven arrestin recruitment, primary screen, imaging, U2OS, beta-arrestin-GFP, LPI agonist (AID 2013); assay type: functional;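 note: antagonist potency measured as reduced agonist-driven arrestin aggregation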
Streptococcus = experiment: Group A Streptococcus viability loss, dose response, counter-screen for streptokinase expression inhibitor project, luminescence, BacTiterGlo (AID 1915); assay type: functional, organism-based;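 note: potency for reduction of bacterial viability or growth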
[3] = Luminescence Cell-Based Dose Retest to Confirm Inhibitors of Cancer Stem Cells. [Related pubchem assays (depositor defined):AID2717, AID2721]; assay type: functional; details: Homo sapiens
[4] = biological target: T2, C-C chemokine receptor type 6 (Homo sapiens, UniProt P51684); experiment: CCR6 receptor antagonists, dose response, cell-based, luminescent beta-arrestin readout (AID 504728); assay type: functional
T2 sequence (P51684 whole entry): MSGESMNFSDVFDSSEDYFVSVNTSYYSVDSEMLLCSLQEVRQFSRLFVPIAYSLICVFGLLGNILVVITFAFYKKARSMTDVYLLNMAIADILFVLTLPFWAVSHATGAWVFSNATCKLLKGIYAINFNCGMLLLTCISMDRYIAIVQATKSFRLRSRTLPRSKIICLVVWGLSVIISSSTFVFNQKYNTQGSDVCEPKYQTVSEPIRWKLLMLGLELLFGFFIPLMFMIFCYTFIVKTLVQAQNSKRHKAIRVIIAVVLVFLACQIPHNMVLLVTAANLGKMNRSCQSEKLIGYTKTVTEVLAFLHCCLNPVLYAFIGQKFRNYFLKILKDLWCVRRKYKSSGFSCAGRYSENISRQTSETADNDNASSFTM

[5] = biological target: T3, Ubiquitin-conjugating enzyme E2 N (Homo sapiens, UniProt P61088); assay type: functional
T3 sequence (P61088 whole entry): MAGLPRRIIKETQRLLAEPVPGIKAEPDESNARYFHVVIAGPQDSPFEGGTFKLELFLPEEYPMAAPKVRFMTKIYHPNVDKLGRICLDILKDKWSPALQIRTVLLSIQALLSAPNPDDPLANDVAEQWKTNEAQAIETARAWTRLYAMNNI

Beta-galactosidase = Beta-galactosidase (Escherichia coli, UniProt Q8VNN2); experiment: beta-galactosidase enzyme inhibitors and activators, dose response, artefact control for CCR6 antagonist project, biochemical, E. coli enzyme, set 3 (AID 504712); assay type: functional
Chain of Beta-galactosidase (Q8VNN2 whole entry): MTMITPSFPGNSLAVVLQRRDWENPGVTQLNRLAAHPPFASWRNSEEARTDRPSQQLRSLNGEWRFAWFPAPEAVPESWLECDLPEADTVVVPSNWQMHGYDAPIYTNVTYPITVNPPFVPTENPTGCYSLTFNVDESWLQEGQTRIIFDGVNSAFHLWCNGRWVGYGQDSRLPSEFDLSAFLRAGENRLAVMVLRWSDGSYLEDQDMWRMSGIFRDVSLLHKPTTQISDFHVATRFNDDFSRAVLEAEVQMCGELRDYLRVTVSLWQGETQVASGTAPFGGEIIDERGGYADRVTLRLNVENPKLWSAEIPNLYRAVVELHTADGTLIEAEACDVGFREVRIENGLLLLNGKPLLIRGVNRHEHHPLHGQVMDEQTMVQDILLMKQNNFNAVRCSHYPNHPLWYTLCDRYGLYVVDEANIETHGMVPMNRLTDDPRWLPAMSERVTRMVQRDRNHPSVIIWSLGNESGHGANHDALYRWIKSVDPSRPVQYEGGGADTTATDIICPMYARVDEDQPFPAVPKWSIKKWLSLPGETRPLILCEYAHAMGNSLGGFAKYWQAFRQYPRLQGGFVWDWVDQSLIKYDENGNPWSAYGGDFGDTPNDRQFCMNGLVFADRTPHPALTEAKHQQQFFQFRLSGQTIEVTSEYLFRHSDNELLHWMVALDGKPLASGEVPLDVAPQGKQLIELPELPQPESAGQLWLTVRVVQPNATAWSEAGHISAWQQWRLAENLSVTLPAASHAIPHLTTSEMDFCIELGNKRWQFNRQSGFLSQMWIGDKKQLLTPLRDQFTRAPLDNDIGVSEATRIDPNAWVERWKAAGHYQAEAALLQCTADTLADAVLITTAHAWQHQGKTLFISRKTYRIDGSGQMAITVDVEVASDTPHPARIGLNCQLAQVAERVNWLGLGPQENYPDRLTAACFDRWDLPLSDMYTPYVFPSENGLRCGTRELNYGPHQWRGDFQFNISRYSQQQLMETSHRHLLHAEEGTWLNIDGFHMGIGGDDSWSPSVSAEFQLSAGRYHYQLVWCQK

Integrin alpha-4 = Integrin alpha-4 (Homo sapiens, UniProt P13612); experiment: VLA-4 integrin allosteric ligands, SAR follow-up, cell-based, LIBS antibody binding, flow cytometry (AID 488791); assay type: functional
Melanocortin receptor 4 = Melanocortin receptor 4 (Homo sapiens, UniProt P32245); assay type: functional, cell-based;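 note: Cell-based assay with luminescence read-out, confirmatory dose-response testing for agonist activity of biased ligands at MC4R; human U2OS cells with tagged receptor and beta-arrestin; potency of agonists that increase receptor coupling to beta-arrestin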
Bcl-2-related protein A1 = biological target: T4, Bcl-2-related protein A1 (Mus musculus, UniProt Q07440); assay type: functional;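 note: confirmatory dose–response counterscreen on Bfl-1, used to check hits from a UBC13 polyubiquitin inhibitor campaign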
T4 sequence (Q07440 whole entry): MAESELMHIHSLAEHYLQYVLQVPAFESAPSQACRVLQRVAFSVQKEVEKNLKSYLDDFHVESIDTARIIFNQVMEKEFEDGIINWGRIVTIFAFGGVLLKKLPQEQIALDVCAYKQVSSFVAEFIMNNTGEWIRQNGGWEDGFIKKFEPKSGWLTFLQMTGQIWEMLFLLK

[6] = biological target: T3, Ubiquitin-conjugating enzyme E2 N; assay type: functional; remark: listed apart in the source
[7] = biological target: T5, Type-1 angiotensin II receptor (Homo sapiens, UniProt P30556); experiment: AT1 receptor agonists, dose response, selectivity assay for APJ receptor agonist project, cell-based, uHTS hits (AID 488865); assay type: functional;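 note: beta-arrestin recruitment to AT1 measured by enzyme fragment complementation luminescence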
T5 sequence (P30556 whole entry): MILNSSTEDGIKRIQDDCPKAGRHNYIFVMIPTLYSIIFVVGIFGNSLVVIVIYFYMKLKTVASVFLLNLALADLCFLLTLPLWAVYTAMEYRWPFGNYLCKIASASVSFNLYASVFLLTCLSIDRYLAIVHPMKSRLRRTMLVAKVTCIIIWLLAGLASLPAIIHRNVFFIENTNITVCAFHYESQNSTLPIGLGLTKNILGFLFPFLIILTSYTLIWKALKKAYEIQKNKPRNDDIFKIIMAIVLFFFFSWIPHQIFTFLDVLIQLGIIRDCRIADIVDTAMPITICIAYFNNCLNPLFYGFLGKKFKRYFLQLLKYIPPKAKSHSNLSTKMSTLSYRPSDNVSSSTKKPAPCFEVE

Coagulation factor XII = biological target: T6, Coagulation factor XII (Homo sapiens, UniProt P00748); experiment: Factor XIIa Dose Response Confirmation from Single Well HTS. [Related pubchem assays (depositor defined):AID701]; assay type: functional
T6 sequence (P00748 whole entry): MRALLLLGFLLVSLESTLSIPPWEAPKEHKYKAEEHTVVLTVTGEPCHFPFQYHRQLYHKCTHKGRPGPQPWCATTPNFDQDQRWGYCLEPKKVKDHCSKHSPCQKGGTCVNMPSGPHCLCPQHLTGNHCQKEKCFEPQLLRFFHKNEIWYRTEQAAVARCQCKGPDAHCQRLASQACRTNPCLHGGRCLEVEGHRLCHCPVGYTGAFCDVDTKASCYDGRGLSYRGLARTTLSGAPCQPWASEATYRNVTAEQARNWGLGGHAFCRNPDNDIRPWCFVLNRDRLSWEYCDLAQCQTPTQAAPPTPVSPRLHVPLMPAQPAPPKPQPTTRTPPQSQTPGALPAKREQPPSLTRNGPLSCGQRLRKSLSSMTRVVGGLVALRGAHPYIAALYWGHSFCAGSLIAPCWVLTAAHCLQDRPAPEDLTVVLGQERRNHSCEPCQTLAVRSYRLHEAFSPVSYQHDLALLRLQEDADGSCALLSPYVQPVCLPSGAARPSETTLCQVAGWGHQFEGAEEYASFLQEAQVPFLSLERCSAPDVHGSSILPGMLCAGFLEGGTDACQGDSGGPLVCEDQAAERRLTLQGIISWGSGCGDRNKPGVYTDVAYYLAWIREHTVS

[8] = biological target: Envelope glycoprotein gp160 (Human immunodeficiency virus 1, UniProt Q6QLK5); experiment: inhibitors of HIV fusion peptide binding, primary screen, biochemical, uHTS, fluorescence dequenching (AID 1986)
Chain of Envelope glycoprotein gp160 (Q6QLK5 whole entry, the tested form may be a part): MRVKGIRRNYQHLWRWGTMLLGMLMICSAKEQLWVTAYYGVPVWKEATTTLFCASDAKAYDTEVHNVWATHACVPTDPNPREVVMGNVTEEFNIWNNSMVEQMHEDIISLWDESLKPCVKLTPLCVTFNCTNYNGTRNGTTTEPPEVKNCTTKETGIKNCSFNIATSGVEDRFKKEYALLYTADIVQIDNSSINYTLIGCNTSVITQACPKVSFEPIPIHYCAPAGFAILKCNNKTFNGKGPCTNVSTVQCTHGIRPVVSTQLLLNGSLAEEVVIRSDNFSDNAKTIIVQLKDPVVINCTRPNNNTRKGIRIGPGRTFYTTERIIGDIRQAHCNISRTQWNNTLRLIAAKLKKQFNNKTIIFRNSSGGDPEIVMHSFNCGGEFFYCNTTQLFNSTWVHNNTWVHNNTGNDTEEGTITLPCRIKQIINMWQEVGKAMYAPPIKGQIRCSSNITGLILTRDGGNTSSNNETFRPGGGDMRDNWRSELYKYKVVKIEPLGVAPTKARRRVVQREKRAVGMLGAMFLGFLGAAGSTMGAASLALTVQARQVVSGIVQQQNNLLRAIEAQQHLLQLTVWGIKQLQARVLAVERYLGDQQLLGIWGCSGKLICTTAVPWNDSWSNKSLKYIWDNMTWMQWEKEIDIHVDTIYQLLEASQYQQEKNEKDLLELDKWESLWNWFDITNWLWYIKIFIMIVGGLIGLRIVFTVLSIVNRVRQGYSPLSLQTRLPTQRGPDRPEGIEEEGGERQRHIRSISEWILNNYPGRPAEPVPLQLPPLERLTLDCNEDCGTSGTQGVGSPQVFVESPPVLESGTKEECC

[9] = HIV-1 Env-mediated cell fusion inhibitors, dose response, CCR5-tropic Env (AID 2279); assay type: functional
[10] = Intein inhibitors as potential Tuberculosis drugs, a cytotoxicity screen. [Related pubchem assays (depositor defined):AID2221, AID2223, AID434968, AID435010, AID449749, AID449750, AID489010]; assay type: functional
[11] = biological target: T7, Replicative DNA helicase DnaB (Mycobacterium tuberculosis, UniProt P9WMR3); experiment: DnaB intein splicing inhibitors, dose response, biochemical, cell-free fluorescence (AID 449749); assay type: functional
T7 sequence (P9WMR3 whole entry): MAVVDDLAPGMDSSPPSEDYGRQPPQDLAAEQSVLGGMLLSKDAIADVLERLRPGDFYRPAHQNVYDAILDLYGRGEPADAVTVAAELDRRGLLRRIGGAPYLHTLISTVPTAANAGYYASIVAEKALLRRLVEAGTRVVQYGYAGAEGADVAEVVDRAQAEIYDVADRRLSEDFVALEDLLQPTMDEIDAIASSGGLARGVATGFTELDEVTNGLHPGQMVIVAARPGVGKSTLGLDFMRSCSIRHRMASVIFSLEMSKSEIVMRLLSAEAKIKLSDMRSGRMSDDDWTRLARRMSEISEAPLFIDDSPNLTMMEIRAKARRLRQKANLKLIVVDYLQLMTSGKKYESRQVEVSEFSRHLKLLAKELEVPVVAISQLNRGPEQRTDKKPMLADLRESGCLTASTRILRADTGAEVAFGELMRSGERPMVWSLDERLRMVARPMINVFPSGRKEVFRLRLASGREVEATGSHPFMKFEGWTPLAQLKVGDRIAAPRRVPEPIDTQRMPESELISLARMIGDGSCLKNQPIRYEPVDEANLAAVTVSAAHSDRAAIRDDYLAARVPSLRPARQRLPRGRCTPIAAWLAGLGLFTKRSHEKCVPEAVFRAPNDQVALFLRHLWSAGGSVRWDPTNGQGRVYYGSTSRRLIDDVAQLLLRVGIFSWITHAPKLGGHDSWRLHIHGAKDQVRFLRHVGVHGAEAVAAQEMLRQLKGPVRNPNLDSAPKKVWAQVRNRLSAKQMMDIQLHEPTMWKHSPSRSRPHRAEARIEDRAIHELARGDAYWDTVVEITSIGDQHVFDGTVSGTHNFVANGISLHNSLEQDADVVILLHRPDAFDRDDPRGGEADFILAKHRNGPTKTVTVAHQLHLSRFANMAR

Protein RecA = biological target: T8, Protein RecA (Mycobacterium tuberculosis, UniProt P9WHJ3); experiment: Fluorescence Cell-Free Homogeneous Dose Retest to Identify Inhibitors of RecA-Intein Splicing Activity. [Related pubchem assays (depositor defined):AID2097, AID2223, AID489010, AID492950]; assay type: functional
T8 sequence (P9WHJ3 whole entry): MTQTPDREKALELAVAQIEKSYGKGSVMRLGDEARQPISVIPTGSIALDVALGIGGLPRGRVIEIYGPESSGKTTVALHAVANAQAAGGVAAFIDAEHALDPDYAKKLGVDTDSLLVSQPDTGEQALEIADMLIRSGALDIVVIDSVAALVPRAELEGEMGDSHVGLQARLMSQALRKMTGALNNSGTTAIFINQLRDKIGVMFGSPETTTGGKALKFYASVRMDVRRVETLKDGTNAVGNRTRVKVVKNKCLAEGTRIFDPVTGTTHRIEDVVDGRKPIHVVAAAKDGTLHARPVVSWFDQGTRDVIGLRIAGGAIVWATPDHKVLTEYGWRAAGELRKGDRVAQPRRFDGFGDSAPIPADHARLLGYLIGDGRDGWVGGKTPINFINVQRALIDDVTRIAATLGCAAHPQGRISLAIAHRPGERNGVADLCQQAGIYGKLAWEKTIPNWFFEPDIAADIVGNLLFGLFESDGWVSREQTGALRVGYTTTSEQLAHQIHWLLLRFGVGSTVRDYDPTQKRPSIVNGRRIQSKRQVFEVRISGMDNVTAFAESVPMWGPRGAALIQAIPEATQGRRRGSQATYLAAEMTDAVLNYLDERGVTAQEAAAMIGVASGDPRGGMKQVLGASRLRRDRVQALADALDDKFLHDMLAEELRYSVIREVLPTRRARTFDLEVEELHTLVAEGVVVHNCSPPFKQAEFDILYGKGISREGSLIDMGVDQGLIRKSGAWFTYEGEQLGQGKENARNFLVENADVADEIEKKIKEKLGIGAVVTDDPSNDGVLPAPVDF

[12] = biological target: 26S proteasome non-ATPase regulatory subunit 14 (Homo sapiens, UniProt O00487); experiment: inhibition of proteasome subunit RPN11 – biochemical, fluorescence polarization, uHTS hits, confirmation (AID 602368); assay type: functional
[13] = biological target: 72 kDa type IV collagenase (Homo sapiens, UniProt P08253); experiment: Dose Response validation of uHTS RPN11 inhibitor hits using a MMP-2 Fluorescence assay.; assay type: functional
Chain of 72 kDa type IV collagenase (P08253 whole entry): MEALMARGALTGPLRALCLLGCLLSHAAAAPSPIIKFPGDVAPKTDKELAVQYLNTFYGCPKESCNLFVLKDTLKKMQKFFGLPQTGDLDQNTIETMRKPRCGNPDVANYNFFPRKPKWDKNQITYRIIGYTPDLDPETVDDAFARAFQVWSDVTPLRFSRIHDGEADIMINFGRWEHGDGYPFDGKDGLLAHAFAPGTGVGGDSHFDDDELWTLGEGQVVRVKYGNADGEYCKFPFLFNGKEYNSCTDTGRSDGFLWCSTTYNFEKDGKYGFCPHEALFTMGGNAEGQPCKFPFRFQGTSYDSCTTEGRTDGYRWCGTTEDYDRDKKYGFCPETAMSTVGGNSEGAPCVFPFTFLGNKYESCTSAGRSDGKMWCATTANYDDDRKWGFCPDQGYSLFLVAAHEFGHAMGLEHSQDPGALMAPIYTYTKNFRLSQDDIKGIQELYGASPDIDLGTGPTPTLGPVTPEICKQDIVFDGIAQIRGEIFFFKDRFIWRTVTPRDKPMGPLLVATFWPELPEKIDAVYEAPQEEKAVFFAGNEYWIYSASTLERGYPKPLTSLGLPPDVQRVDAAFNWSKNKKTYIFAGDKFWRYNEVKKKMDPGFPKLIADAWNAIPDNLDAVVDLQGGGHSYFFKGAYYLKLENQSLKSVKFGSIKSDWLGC

Prothrombin = Prothrombin (Bos taurus, UniProt P00735); experiment: thrombin inhibition, dose response, biochemical, fluorescence polarization, uHTS hits (AID 602369); assay type: functional
Fatty acid synthase [14] = biological target: T9, Fatty acid synthase (Homo sapiens, UniProt P49327); experiment: FAS thioesterase domain inhibitors, dose response, biochemical, endpoint fluorescence intensity, uHTS hits (AID 624327); assay type: functional;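 note: fluorescence from hydrolysis of an O-methyl fluorescein acyl ester substrate by the enzyme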
T9 sequence (P49327 whole entry, the tested form may be a part): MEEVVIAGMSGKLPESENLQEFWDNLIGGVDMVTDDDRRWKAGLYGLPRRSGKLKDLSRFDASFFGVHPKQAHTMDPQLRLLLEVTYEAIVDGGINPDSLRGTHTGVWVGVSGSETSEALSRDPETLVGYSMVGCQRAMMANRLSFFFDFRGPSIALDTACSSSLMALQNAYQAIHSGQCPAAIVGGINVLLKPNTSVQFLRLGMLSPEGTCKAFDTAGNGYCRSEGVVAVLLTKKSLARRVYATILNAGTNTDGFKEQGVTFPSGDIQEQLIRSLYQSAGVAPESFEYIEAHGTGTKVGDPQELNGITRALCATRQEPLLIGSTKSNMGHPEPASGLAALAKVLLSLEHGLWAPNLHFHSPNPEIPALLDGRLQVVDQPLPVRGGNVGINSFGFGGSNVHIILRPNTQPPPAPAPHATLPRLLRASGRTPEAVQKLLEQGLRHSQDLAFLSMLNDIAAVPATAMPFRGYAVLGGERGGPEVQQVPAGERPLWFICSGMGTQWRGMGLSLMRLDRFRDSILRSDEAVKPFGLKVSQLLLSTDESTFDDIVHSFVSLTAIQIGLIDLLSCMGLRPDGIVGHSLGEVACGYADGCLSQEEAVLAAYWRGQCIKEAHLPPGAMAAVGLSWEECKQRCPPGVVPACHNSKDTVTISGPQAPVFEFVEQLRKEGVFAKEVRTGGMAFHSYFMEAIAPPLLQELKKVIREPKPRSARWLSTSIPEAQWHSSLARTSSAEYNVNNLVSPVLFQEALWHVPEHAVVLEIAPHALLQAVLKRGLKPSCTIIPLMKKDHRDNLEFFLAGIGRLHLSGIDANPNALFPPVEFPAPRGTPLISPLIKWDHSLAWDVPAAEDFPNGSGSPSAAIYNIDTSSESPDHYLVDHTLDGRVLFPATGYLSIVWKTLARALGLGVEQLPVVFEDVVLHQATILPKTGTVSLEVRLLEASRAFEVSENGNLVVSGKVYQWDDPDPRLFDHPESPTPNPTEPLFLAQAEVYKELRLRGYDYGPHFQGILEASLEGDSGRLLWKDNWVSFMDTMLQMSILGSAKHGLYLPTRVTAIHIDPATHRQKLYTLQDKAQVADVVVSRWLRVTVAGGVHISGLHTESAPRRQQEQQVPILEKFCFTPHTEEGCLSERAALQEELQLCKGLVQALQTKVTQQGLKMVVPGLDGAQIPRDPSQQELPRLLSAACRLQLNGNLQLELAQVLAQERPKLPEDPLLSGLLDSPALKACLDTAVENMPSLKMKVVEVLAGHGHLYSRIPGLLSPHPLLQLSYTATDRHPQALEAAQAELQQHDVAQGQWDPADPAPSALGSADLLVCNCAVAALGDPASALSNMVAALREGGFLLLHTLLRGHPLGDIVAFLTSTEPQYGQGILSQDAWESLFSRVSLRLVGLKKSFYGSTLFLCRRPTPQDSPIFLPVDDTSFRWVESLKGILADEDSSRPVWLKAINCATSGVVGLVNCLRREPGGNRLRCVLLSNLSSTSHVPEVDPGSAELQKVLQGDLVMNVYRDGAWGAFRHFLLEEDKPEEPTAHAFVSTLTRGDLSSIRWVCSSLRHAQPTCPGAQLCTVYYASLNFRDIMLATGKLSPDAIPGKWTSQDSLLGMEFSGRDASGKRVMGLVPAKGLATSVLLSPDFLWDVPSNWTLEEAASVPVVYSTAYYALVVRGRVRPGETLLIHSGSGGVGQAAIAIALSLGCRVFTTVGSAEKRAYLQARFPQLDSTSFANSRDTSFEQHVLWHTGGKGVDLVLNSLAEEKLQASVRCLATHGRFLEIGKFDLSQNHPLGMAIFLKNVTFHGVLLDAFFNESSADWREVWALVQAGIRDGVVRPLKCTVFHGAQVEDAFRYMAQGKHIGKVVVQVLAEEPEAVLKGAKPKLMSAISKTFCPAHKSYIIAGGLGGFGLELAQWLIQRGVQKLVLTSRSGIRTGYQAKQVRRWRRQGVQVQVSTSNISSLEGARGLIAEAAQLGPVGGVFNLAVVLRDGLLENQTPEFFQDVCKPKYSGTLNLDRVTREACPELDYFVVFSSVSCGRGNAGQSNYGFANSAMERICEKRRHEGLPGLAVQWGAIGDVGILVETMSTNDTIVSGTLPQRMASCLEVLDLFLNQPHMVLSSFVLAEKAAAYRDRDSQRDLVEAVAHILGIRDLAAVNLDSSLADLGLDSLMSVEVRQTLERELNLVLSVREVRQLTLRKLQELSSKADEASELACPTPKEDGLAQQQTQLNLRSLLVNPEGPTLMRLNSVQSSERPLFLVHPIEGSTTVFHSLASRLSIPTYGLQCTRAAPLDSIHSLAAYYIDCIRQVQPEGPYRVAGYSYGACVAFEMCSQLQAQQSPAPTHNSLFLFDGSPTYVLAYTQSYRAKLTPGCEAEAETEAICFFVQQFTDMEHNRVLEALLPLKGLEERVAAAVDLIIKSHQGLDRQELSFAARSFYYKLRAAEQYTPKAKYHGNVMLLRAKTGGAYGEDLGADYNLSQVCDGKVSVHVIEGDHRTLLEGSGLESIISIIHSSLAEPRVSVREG

Fatty acid synthase [15] = biological target: T9, Fatty acid synthase; experiment: FAS thioesterase domain inhibitors, dose response, biochemical, kinetic fluorescence intensity (AID 624326); assay type: functional;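 note: rate of fluorescence rise from hydrolysis of a fluorogenic O-methyl fluorescein ester substrate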
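Throughout, for CC50: cells exposed to compound for 72 hours before luminescence readout.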

Cc1c(CCOC(=O)C2C3CC4CC(C3)CC2C4)sc[n+]1CC(=O)c1ccc(Br)cc1 (stereo not drawn)
EC50 [1]: 8.85 µM (active)
EC50 (Streptokinase A): 21.9 µM (active)
IC50 [2]: 3.25 µM (active)
EC50 (Streptococcus): > 150 µM (not active)
AC50 [3]: 2.17 µM (active)
IC50 [4]: 27 µM (inactive)
IC50 [5]: > 20 µM (inactive)
IC50 (Beta-galactosidase): > 66.6 µM (inactive)

c1ccc(-c2sc3ccccc3c2-c2ccc(OCCN3CCCC3)cc2)cc1
AC50 [3]: 2.21 µM (active)
EC50 (Integrin alpha-4): 26.1 µM (active)
EC50 (Melanocortin receptor 4): > 89.2 µM (inactive)

CCOc1ccc2nc(N(CCCN(C)C)C(=O)c3ccc(S(=O)(=O)N4CCc5ccccc5C4)cc3)sc2c1
IC50 (Bcl-2-related protein A1): > 20 µM (inactive)
IC50 [5]: 6.95 µM (active)
IC50 [6]: 5.52 µM (active)
EC50 [7]: > 100 µM (inactive)

O=C(c1ccc2c(c1)OCO2)N1CCN(c2ccc(F)cc2)CC1
IC50 (Coagulation factor XII): > 50 µM (inactive)

O=C1NC(=S)N(C2CCCCC2)C(=O)/C1=C/NNC(=O)c1ccccc1O
IC50 [8]: 17.7 µM (active)
EC50 [1]: 0.725 µM (active)
IC50 [9]: 33.7 µM (active)
EC50 (Streptococcus): 2.18 µM (active)
CC50 [10]: 31.2 µM (active)
AC50 [11]: 3.25 µM (active)
EC50 (Protein RecA): 4.6 µM (active)
IC50 [12]: 36.7 µM (active)
IC50 [13]: > 100 µM (inactive)
IC50 (Prothrombin): 93.6 µM (active)
IC50 (Fatty acid synthase [14]): 31.1 µM (inactive)
IC50 (Fatty acid synthase [15]): 18.2 µM (active)
